From US20240090503A1, “FUNGICIDAL OXADIAZOLES AND THEIR MIXTURES” (FMC CORPORATION, priority 2020, published 2024)
Where two headings read alike, the source gives them in different places.

Experiments:
[1] = test system: Phakopsora pachyrhizi (the causal agent of Asian soybean rust); test: Test A: preventive spray on soybean seedlings, Asian soybean rust, visual disease rating; assay type: in vivo; details: Phakopsora pachyrhizi, 216 h, soybean seedlings, 100 = 100% disease control, 0 = no control; for pest or weed control at 10 µg/mL: test suspension 10 ppm, read-out: Test A disease control rating; for pest or weed control at 10 ppm: 10 ppm test suspension
Procedure, shortened: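 Preventive test: soybean seedlings received a run-off spray of compound suspended at the set ppm in 50/50 acetone/water plus 250 ppm PEG400, and one day later a P. pachyrhizi spore inoculum. Visual scoring (0 none to 100 full disease control) followed 24 h saturated incubation and 8 days' growth chamber, both at 22° C.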

[2] = test system: Zymoseptoria tritici (the causal agent of wheat leaf blotch); test: Test B: preventive spray on wheat seedlings, wheat leaf blotch, visual disease rating; assay type: in vivo; details: Zymoseptoria tritici, 456 h, wheat seedlings; for pest or weed control at 250 µg/mL: test suspension 250 ppm; for pest or weed control at 250 ppm: 250 ppm test suspension, 100 = 100% disease control
Procedure, shortened: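 This is a preventive test: spray application preceded Zymoseptoria tritici spore inoculation by one day. Test suspensions were in acetone/water with 250 ppm PEG400 surfactant, at the listed ppm rate. After 48 h saturated humidity at 24° C and 17 days at 20° C, visual ratings scored control from 0 to 100%.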

[3] = test system: Puccinia recondita f. sp. tritici (the causal agent of wheat leaf rust); test: Test C: preventive spray on wheat seedlings, wheat leaf rust, visual disease rating; assay type: in vivo; details: Puccinia recondita, 168 h, wheat seedlings; for pest or weed control at 10 µg/mL: test suspension 10 ppm, read-out: Test C disease control rating; for pest or weed control at 10 ppm: 10 ppm test suspension
Procedure, shortened: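 Wheat seedlings sprayed to run-off with compound in acetone/water (50/50) with 250 ppm PEG400, then inoculated with spores the following day. After 24 h saturated humidity at 20° C. and 6 days in growth chamber at 20° C., disease rated visually as % control relative to untreated controls.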

[4] = test system: Phakopsora pachyrhizi (the causal agent of Asian soybean rust); test: Test E: compounds alone and mixtures sprayed on soybean seedlings, Asian soybean rust, observed and Colby-expected disease control; assay type: in vivo; details: Phakopsora pachyrhizi
Source text: The general protocol for preparing test compositions for TEST E was as follows: Compound 316, Compound 376, Compound 225, Compound 229, Compound 257, Compound 394, Compound 506, Compound 507, Compound 508, Compound 509, Compound 511, Compound 512, methyl N-[[5-[1-[2,6-difluoro-4-(1-methylethyl)phenyl]-1H-pyrazol-3-yl]-2-methylphenyl]methyl]carbamate (b54.11a), methyl N-[[5-[l-(4-cyclopropyl-2,6-difluorophenyl)-1H-pyrazol-3-yl]-2-methylphenyl]methyl]carbamate (b54.11d), ethyl 1-[[4-[[(1Z)-2-ethoxy-3,3,3-trifluoro-1-propen-1-yl]oxy]phenyl]methyl]-1H-pyrazole-4-carboxylate (b54.12a), ethyl 1-[[4-[[2-(trifluoromethyl)-1,3-dioxolan-2-yl]methoxy]phenyl]methyl]-1H-pyrazole-4-carboxylate (b54.13a), azoxystrobin, benzovindiflupyr, bixafen, chlorothalonil, cyproconazole, epoxiconazole, fenpropidin, fenpropimorph, fluindapyr, flutriafol, fluxapyroxad, inpyrfluxam, metominostrobin, picoxystrobin, prothioconazole, pydiflumetofen, pyraclostrobin, tebuconazole and trifloxystrobin were obtained as unformulated, technical-grade materials. Copper hydroxide and mancozeb was obtained as a formulated product marketed under the trademarks KOCIDE 3000 and MANZATE, respectively. Unformulated materials were first dissolved in acetone and then suspended at the desired concentration (in ppm) in acetone and purified water (50/50 mixture by volume) containing 250 ppm of the surfactant Trem® 014 (polyhydric alcohol esters). Formulated materials were dispersed in sufficient water to give the desired concentration, and neither organic solvent nor surfactant was added to the suspension. The resulting test mixtures were then used in TEST E. The tests were run on four individual plants and the results reported as the mean average of the four plants.
The presence of a synergistic effect between two active ingredients can be established with the aid of the Colby equation (see Colby, S. R. “Calculating Synergistic and Antagonistic Responses of Herbicide Combinations”, Weeds, (1967), 15, 20-22):
Using the method of Colby, the presence of a synergistic interaction between two active ingredients is established by first calculating the predicted activity, p, of the mixture based on activities of the two components applied alone. If p is lower than the experimentally established effect, synergism has occurred. In the equation above, A is the fungicidal activity in percentage control of one component applied alone at rate x. The B term is the fungicidal activity in percentage control of the second component applied at rate y. The equation estimates p, the expected fungicidal activity of the mixture of A at rate x with B at rate y if their effects are strictly additive and no interaction has occurred.
The test mixture was sprayed to the point of run-off on soybean seedlings. The following day the seedlings were inoculated with a spore suspension of Phakopsora pachyrhizi (the causal agent of Asian soybean rust) and incubated in a saturated atmosphere at 22° C. for 24 h and then moved to a growth chamber at 22° C. for 8 days, after which time visual disease ratings were made.
Results for Test E are given below in Tables A-1 through K-2. Each table corresponds to a set of evaluations performed together at the same time. In each table, a rating of 100 indicates 100% disease control and a rating of 0 indicates no disease control (relative to the controls). Columns labeled “Obsd” indicate the average of results observed from test run on four individual plants. Columns labeled “Exp” indicate the expected value for each treatment mixture using the Colby equation, as described above.

[5] = 100 = 100% disease control, 0 = no control

melting point [°C] | SMILES | pest or weed control at 10 µg/mL [1] [%] | pest or weed control at 250 µg/mL [2] [%] | pest or weed control at 10 µg/mL [3] [%] | pest or weed control at 10 ppm [1] [%] | pest or weed control at 10 ppm [3, 5] [%] | also measured
 | N#CCCNC(=O)c1coc(Cc2ccc(-c3noc(C(F)(F)F)n3)cc2)n1 [Compound 229, N-(2-cyanoethyl)-2-[[4-[5-(trifluoromethyl)-1,2,4-oxadiazol-3-yl]phenyl]methyl]-4-oxazolecarboxamide] | 100 | 94 | 100 |  |  | pest or weed control at 0.964 ppm ([4]; applied alone, 0.964 ppm, read-out: Test E Obsd): 59%; pest or weed control at 1.915 ppm ([4]; applied alone, 1.915 ppm, read-out: Test E Obsd): 77%
 | COCCNC(=O)c1coc(Cc2ccc(-c3noc(C(F)(F)F)n3)cc2)n1 [Compound 257, N-(2-methoxyethyl)-2-[[4-[5-(trifluoromethyl)-1,2,4-oxadiazol-3-yl]phenyl]methyl]-4-oxazolecarboxamide] | 100 | 99 | 100 |  |  | pest or weed control at 0.914 ppm ([4]; applied alone, 0.914 ppm, read-out: Test E Obsd): 27%
125 to 126 | O=C(NCCn1cccn1)c1coc(Cc2ccc(-c3noc(C(F)(F)F)n3)cc2)n1 [Compound 264, N-[2-(1H-pyrazol-1-yl)ethyl]-2-[[4-[5-(trifluoromethyl)-1,2,4-oxadiazol-3-yl]phenyl]methyl]-4-oxazolecarboxamide] | 100 | 99 | 99 |  |  | 
104 to 105 | O=C(NCCC(F)(F)F)c1coc(Cc2ccc(-c3noc(C(F)(F)F)n3)cc2)n1 [Compound 330, 2-[[4-[5-(trifluoromethyl)-1,2,4-oxadiazol-3-yl]phenyl]methyl]-N-(3,3,3-trifluoropropyl)-4-oxazolecarboxamide] | 100 | 96 | 100 |  |  | 
 | CCOC(=O)c1cnn(COc2ccc(-c3noc(C(F)(F)F)n3)cc2)c1 [Compound 376, ethyl 1-[[4-[5-(trifluoromethyl)-1,2,4-oxadiazol-3-yl]phenoxy]methyl]-1H-pyrazole-4-carboxylate] | 100 | 49 | 68 |  |  | pest or weed control at 0.753 ppm ([4]; Compound 376 alone, 0.753 ppm, read-out: Test E Obsd): 53%; pest or weed control at 1.228 ppm ([4]; Compound 376 alone, 1.228 ppm, read-out: Test E Obsd): 78%; pest or weed control at 0.753 ppm ([4]; Table A-2, Compound 376 0.753 ppm alone, read-out: Test E Obsd (disease control rating)): 70%; pest or weed control at 1.228 ppm ([4]; Table A-2, Compound 376 1.228 ppm alone, read-out: Test E Obsd (disease control rating)): 66%; pest or weed control at 0.753 ppm ([4]; Table B-2, Compound 376 0.753 ppm alone, read-out: Test E Obsd (disease control rating)): 15%; pest or weed control at 1.228 ppm ([4]; Table B-2, Compound 376 1.228 ppm alone, read-out: Test E Obsd (disease control rating)): 21%; pest or weed control at 0.753 ppm ([4]; Table C-2, Compound 376 0.753 ppm alone, read-out: Test E Obsd (disease control rating)): 54%; pest or weed control at 1.228 ppm ([4]; Table C-2, Compound 376 1.228 ppm alone, read-out: Test E Obsd (disease control rating)): 71%; pest or weed control at 0.753 ppm ([4]; Table D-2, Compound 376 0.753 ppm alone, read-out: Test E Obsd (disease control rating)): 67%; pest or weed control at 1.228 ppm ([4]; Table D-2, Compound 376 1.228 ppm alone, read-out: Test E Obsd (disease control rating)): 68%; pest or weed control at 0.753 ppm ([4]; Table E-2, Compound 376 0.753 ppm alone, read-out: Test E Obsd (disease control rating)): 81%; pest or weed control at 1.228 ppm ([4]; Table E-2, Compound 376 1.228 ppm alone, read-out: Test E Obsd (disease control rating)): 67%; pest or weed control at 0.753 ppm ([4]; Table F-2, Compound 376 0.753 ppm alone, read-out: Test E Obsd (disease control rating)): 68%; pest or weed control at 1.228 ppm ([4]; Table F-2, Compound 376 1.228 ppm alone, read-out: Test E Obsd (disease control rating)): 77%; pest or weed control at 0.753 ppm ([4]; Table G-2, Compound 376 0.753 ppm alone, read-out: Test E Obsd (disease control rating)): 52%; pest or weed control at 1.228 ppm ([4]; Table G-2, Compound 376 1.228 ppm alone, read-out: Test E Obsd (disease control rating)): 37%; pest or weed control at 0.753 ppm ([4]; Table H-2, Compound 376 0.753 ppm alone, read-out: Test E Obsd (disease control rating)): 62%; pest or weed control at 1.228 ppm ([4]; Table H-2, Compound 376 1.228 ppm alone, read-out: Test E Obsd (disease control rating)): 81%
83 to 92 | O=C(NCC(F)F)c1csc(Cc2ccc(-c3noc(C(F)(F)F)n3)cc2)n1 [Compound 505, N-(2,2-difluoroethyl)-2-[[4-[5-(trifluoromethyl)-1,2,4-oxadiazol-3-yl]phenyl]methyl]-4-thiazolecarboxamide] |  |  |  | 100 | 100 | pest or weed control at 250 ppm [2]: 100%
116 to 120 | O=C(NCC(F)(F)F)c1noc(Cc2ccc(-c3noc(C(F)(F)F)n3)cc2)n1 [Compound 506, N-(2,2,2-trifluoroethyl)-5-[[4-[5-(trifluoromethyl)-1,2,4-oxadiazol-3-yl]phenyl]methyl]-1,2,4-oxadiazole-3-carboxamide] |  |  |  |  |  | pest or weed control at 250 ppm ([1]; 250 ppm test suspension): 100%; pest or weed control at 250 ppm [2]: 49%; pest or weed control at 250 ppm ([3]; 250 ppm test suspension, 100 = 100% disease control, 0 = no control): 100%
111 to 114 | N#CCn1ccc(Cc2ccc(-c3noc(C(F)(F)F)n3)cc2)n1 [Compound 507, 3-[4-[(1-cyanomethyl-1H-pyrazol-3-yl)methyl]phenyl]-5-(trifluoromethyl)-1,2,4-oxadiazole] |  |  |  | 100 | 98 | pest or weed control at 1.823 ppm ([4]; applied alone, 1.823 ppm, read-out: Test E Obsd): 74%
101 to 104 | N#CCc1cc(Cc2ccc(-c3noc(C(F)(F)F)n3)cc2)on1 [Compound 510, 5-[[4-[5-(trifluoromethyl)-1,2,4-oxadiazol-3-yl]phenyl]methyl]-3-isoxazoleacetonitrile] |  |  |  | 100 | 84 | 
